We go through one compound from publication PMC6628435, “Chemical Synthesis, Proper Folding, Nav Channel Selectivity Profile and Analgesic Properties of the Spider Peptide Phlotoxin 1” (Toxins, 2019).

Each structure is given as a SMILES string. Bridge positions count the residues as written; N and C are the ends. Peptide text beside a SMILES is read from it. Some results are limits rather than exact numbers.

In series [1] the test system is formalin-induced spontaneous pain behavior. The series is described as follows: Formalin pain test in mice after intrathecal injection. The format is in vivo, C57BL/6J mice. The following applies: intrathecal, 10 µL; PhlTx1 100 pmoles (n = 5), morphine 0.25 mg (n = 6); 10 µL 5% formalin in hindpaw; versus vehicle.
A further series has as its target T1, Nav1.7/β1 (Rattus norvegicus, UniProt O08562).
T1 construct: expressed in transfected cells; host or cells: Xenopus laevis oocytes injected with cRNA
The series is described as follows: Two-electrode voltage-clamp on Xenopus laevis oocytes expressing Nav1.7/β1. Type of series: cell-based. Background: In two-electrode clamp one electrode senses voltage and the other passes current.

In another series the target is T2, hNav1.4 (Homo sapiens, UniProt P35499).
T2 construct: expressed in transfected cells; host or cells: CHO cells
T2 sequence (P35499 whole entry): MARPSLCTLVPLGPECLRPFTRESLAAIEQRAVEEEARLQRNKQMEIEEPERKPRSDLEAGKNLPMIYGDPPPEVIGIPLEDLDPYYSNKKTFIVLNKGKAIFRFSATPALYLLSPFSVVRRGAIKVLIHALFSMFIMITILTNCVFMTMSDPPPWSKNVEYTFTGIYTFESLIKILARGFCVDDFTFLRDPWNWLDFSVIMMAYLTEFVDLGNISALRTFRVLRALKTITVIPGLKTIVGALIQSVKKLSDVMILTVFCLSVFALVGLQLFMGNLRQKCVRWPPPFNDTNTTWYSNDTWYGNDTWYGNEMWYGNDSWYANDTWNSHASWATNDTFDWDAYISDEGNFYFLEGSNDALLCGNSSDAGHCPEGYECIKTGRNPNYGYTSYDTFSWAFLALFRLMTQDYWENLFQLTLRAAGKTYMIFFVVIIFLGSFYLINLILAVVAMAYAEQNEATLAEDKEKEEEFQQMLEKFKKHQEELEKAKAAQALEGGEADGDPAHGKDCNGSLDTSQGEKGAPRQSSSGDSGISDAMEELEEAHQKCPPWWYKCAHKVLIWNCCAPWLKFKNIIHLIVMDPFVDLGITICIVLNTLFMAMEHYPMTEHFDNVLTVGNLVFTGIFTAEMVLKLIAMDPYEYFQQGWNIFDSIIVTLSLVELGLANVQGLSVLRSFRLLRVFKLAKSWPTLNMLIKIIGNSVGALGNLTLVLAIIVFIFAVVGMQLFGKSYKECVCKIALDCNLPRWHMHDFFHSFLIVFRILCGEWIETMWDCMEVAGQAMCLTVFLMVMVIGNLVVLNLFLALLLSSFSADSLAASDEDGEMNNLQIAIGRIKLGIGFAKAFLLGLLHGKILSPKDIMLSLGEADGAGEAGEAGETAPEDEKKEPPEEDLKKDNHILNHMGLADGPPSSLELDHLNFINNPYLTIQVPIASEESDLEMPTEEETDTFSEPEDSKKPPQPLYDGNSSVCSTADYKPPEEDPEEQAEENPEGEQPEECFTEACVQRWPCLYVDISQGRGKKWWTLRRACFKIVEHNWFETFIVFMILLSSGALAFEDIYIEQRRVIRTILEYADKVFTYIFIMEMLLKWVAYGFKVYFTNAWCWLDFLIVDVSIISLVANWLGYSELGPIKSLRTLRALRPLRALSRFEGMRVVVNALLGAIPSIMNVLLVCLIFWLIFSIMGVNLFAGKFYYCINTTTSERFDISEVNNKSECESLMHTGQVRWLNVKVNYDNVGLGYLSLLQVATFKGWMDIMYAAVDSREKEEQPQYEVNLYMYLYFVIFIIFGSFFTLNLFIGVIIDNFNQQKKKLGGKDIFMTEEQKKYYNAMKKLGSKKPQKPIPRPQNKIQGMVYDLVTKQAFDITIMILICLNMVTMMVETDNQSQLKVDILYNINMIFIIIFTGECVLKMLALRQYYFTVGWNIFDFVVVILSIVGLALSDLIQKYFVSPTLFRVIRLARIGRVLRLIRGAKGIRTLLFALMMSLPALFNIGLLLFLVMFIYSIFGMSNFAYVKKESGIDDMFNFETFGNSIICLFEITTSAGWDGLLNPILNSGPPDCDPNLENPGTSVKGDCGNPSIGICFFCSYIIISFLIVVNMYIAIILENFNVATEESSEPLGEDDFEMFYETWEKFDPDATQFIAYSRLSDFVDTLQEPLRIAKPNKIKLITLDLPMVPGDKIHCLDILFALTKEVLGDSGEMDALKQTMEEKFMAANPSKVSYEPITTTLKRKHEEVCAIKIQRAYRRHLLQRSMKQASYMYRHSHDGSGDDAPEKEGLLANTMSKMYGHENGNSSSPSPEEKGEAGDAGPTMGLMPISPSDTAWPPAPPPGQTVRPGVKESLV
As to the kind of experiment: Automated patch-clamp dose-response on hNav1.4 expressed in CHO cells. To be noted: 4 to 13 cells per concentration, read-out: calculated IC50. Type of series: cell-based.

The subject of another series is Nav1.5/β1. As to the kind of experiment: Two-electrode voltage-clamp on Xenopus laevis oocytes expressing Nav1.5/β1. The format is cell-based. The following applies: 1 µM; voltage of maximum sodium influx, holding −90 mV; oocytes TEVC; n ≥ 3. From the text: Using the two-electrode voltage-clamp technique on Xenopus laevis oocytes, the effect of PhlTx1 was also compared on eight different cloned vertebrate Nav channels co-expressed with the β1 subunit (Nav1.1-1.8/β1) and on the neuronal insect Nav channel, para, co-expressed with the tipE subunit (Figure 3 and Figure 4). […] Normalized current-voltage relationships (I-V curve) of Nav1.2/β1 and Nav1.3/β1 channels seemed to be shifted towards more negative potentials when PhlTx1 was applied, but shifts were not statistically significant […] (Figure 4). The activation phase of the other studied Nav channel subtypes was not affected. No obvious alteration in channel availability was observed, except a 5-mV negative shift for Nav1.3/β1, although that was also non-significant (p > 0.05).
Figure 4 1 µM of PhlTx1 was tested on Nav1.1/β1, Nav1.2/β1, Nav1.3/β1, Nav1.4/β1, Nav1.5/β1, Nav1.6/β1, Nav1.8/β1 and para/tipE (n ≥ 3). Left column: current traces were evoked by a 50-ms depolarization to the voltage of maximum sodium influx, depending on the Nav studied, from a holding potential of −90 mV. At 1 µM PhlTx1, all studied Nav channels, except Nav1.4/β1, were blocked for about 10% (no toxin: *). The current of Nav1.4/β1 was reduced for about 35 ± 5%. Middle column: normalized I-V curves reveal no significant shift of the activation voltage (p > 0.05). […]

The conditions of series [2]: mice; PhlTx1 100 pmoles or morphine 0.25 mg in 10 µL.

T1 sequence (O08562 whole entry): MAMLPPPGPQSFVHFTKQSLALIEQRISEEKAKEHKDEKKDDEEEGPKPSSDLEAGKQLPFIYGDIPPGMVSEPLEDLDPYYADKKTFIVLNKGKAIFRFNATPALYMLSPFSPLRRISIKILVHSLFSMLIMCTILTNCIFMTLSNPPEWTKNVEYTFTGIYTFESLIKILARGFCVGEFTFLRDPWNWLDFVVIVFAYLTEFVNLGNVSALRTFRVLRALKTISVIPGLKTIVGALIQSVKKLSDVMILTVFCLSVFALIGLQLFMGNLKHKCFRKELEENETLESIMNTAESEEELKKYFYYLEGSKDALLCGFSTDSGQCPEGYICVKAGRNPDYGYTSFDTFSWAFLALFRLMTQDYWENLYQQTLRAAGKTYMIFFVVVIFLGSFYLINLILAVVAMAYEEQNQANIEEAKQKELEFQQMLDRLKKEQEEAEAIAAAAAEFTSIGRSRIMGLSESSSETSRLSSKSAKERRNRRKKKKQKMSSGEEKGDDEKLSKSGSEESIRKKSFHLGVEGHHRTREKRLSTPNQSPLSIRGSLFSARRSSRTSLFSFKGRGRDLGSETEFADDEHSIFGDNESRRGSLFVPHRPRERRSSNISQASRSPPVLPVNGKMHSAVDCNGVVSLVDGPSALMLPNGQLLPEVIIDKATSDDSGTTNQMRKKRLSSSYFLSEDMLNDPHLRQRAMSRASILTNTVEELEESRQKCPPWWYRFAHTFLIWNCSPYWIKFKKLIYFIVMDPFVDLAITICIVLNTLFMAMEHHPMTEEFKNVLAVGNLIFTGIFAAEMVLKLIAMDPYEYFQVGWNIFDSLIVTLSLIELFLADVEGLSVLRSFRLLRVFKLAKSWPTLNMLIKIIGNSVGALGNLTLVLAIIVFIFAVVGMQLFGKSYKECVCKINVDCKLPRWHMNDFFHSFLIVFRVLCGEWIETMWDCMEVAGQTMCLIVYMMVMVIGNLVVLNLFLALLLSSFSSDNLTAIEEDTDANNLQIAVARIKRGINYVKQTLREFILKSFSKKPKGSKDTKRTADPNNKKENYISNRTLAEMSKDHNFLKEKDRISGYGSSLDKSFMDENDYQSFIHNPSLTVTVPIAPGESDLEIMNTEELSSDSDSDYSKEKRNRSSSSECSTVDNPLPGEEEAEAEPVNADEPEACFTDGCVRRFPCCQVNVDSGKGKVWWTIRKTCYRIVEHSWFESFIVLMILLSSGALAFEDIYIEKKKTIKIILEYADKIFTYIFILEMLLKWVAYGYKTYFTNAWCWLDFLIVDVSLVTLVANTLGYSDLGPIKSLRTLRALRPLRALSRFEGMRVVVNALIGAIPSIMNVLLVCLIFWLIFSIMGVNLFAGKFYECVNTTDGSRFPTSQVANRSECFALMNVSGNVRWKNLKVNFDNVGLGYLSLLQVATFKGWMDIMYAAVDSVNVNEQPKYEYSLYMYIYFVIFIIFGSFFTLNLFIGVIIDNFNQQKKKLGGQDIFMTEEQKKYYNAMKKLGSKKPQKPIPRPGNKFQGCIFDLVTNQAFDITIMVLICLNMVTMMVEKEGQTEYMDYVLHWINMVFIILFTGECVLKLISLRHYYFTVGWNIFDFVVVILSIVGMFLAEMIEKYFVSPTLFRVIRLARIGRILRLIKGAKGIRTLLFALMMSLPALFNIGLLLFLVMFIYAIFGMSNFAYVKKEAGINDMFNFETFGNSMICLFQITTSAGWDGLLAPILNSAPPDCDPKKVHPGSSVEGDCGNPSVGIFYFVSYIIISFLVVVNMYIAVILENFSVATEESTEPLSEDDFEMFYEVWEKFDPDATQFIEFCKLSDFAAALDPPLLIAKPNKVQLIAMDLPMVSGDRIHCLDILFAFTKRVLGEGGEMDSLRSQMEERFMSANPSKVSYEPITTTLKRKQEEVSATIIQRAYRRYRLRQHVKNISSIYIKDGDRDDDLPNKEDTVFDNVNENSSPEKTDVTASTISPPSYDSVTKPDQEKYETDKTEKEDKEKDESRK
T1 sequence (Q00954 19-218 partner): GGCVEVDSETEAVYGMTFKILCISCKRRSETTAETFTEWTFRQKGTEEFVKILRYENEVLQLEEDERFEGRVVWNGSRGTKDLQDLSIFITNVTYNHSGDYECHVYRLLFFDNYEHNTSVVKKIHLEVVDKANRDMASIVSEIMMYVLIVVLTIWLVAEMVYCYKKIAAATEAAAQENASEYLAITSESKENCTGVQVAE

The inhibition is the change of the read-out against control, counted positive when it falls. One may read the IC50 as the concentration at which inhibition is half-maximal. The Hill coefficient is a measure of the steepness of the concentration-response curve. For the compound `CC(C)C[C@@H]1NC(=O)[C@@H](NC(=O)[C@H](C)N)CSSC[C@@H]2NC(=O)[C@@H]3CSSC[C@@H](C(=O)N[C@@H](CCCNC(=N)N)C(=O)N[C@@H](Cc4ccc(O)cc4)C(=O)N[C@@H](CCCCN)C(=O)N[C@@H](CC(C)C)C(=O)N[C@@H](Cc4ccccc4)C(=O)O)NC(=O)[C@H](Cc4c[nH]c5ccccc45)NC(=O)[C@@H]4CCCN4C(=O)[C@H](Cc4ccc(O)cc4)NC(=O)[C@H](CCCCN)NC(=O)[C@H](Cc4c[nH]c5ccccc45)NC(=O)[C@H](CCC(=O)O)NC(=O)[C@H](CSSC[C@H](NC(=O)[C@H](CO)NC(=O)[C@H](CC(=O)O)NC(=O)[C@H](Cc4c[nH]c5ccccc45)NC(=O)[C@H](CCC(N)=O)NC(=O)CNC1=O)C(=O)N[C@@H](CC(=O)O)C(=O)N1CCC[C@H]1C(=O)N[C@@H](CCCCN)C(=O)N[C@@H](C)C(=O)N[C@@H](CO)C(=O)N[C@@H](CCCCN)C(=O)N3)NC(=O)[C@H](C)NC(=O)[C@H](Cc1ccc(O)cc1)NC(=O)[C@H](CC(N)=O)NC(=O)[C@@H]1CCCN1C2=O` [PhlTx1, Phlotoxin-1] (H-ACLGQWDSCDPKASKCCPNYACEWKYPWCRYKLF-OH; disulfide 2-17, 9-22, 16-29; N-terminus and C-terminus assumed), in series [1], the “formalin-induced pain behavior (licking), Phase II (inflammation, 10–45 min)” value is listed as “substantially reduced the response” and the “formalin-induced pain behavior, Phase I (acute pain, 0–10 min)” value is on record as “substantially reduced the response”. The inhibition at 1 µM on Nav1.7/β1 (1 µM, holding −90 mV, oocytes TEVC, clone rPN1, read-out: inhibition of inward currents) is 90 ± 7%. Besides, at Nav1.7/β1 (Xenopus laevis oocytes, stimulus frequency 0.3 Hz, Hill equation fit, n = 4, 0.1% BSA), half-maximal inhibition (IC50) required 260 ± 46 nM. The same compound registered a Hill coefficient on Nav1.7/β1 (Xenopus laevis oocytes, stimulus frequency 0.3 Hz, n = 4) of 1.3. For the same compound, the IC50 on hNav1.4 is more than 3000 nM. The “block of sodium current” value in the series with Nav1.5/β1 is reported as “about 10%”. In addition, in series [2], the “neurotoxicity after intrathecal injection” value is given as “no neurotoxicity was observed”.
